Reference: patent US6703385B1, “Tricyclic compounds having sPLA2-inhibitory activities” (Shionogi & Co., Ltd., priority 1999, dated 2004)

Experiments:
[1] = target: T1, type II sPLA2 (Homo sapiens, UniProt P14555); assay: Inhibition test of human secretory phospholipase A2, chromogenic assay, type II enzyme; type: biochemical; details: Inhibitory activity of type II sPLA2
T1 sequence (P14555 21-144): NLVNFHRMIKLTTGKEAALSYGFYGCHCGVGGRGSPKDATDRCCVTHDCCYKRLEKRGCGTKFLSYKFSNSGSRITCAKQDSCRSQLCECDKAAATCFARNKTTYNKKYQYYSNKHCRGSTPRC
Source text: In order to identify and evaluate an inhibitor of recombinant human secretory phospholipase A2, the following chromogenic assay is utilized. The assay herein has been applied for high volume screening wherein 96 well microtiterplate is used. A general explanation for such assay is described in “Analysis of Human Synovial Fluid Phospholipase A2 on Short Chain Phosphatidylcholine-Mixed Micelles: Development of a Spectrophotometric Assay Suitable for a Microtiterplate Reader” (Analytical Biochemistry, 204, pp 190-197, 1992 by Laure. J. Reynolds. Lori L. Hughes and Edward A. Dennis: the disclosure of which is incorporated herein for reference.
Type II enzyme: 1 mg of sPLA2 is dissolved in 1 ml of an enzyme buffer. Thereafter, the solution is maintained at 4° C. In the assay, 5 μl of the solution is diluted with 1995 μl of the reaction buffer to be used.
1) 0.106 ml of the substrate solution is put in a centrifugal tube, and nitrogen gas is jetted to remove the solvent. 0.54 ml of Triton-X 100 is added thereto, the mixture is stirred, thereafter it is sonified in a bath type sonification to dissolve. To the resulting product are added 17.8 ml of the reaction buffer and 0.46 ml of DTNB, and 0.18 ml each of the admixture is poured to wells of the 96 well microtiterplate.
2) 10 μl of a test compound (or solvent blank) are added in accordance with alignment of plates which has been previously set.
3) Incubation is effected at 40° C. for 15 minutes.
4) 90 ng/well in case of human type I enzyme, 50 ng/well in case of human type II enzyme, 40 μl/well in case of human type V enzyme, 15 μl/well in case of human type X enzyme were reacted.
5) Changes in absorbancy for 30 minutes for humane type I, type II, and type X enzyme and for 45 min for human type V enzyme, are measured by a plate reader, and inhibition activity was calculated (OD: 405 nm).
6) IC50 was determined by plotting log concentration with respect to inhibition values within 10% to 90% inhibiting range.

Row | Structure (SMILES) | IC50 [1] | melting point
1 | NC(=O)C(=O)c1c2scc(-c3ccccc3)c2n2cccc(OCC(=O)O)c12 [Compound I-12] | 0.178 µM | –
2 | NC(=O)C(=O)c1c2c(n3ccnc(OCC(=O)O)c13)C(c1ccccc1)=CCC2 [Compound I-14] | 0.034 µM | –
3 | COC(=O)COc1cccn2c3c(c(C(=O)C(N)=O)c12)CCC=C3c1ccccc1 [Compound I-1] | 0.789 µM | 225 to 227 °C (dec.)
4 | COC(=O)COc1cccn2c1c(C(=O)C(N)=O)c1scc(-c3ccccc3)c12 [Compound I-11] | 5.68 µM | –

Other lines, results leading:

Row | IC50 [1] | melting point | Structure (SMILES)
5 | 0.045 µM | 228 to 230 °C (dec.) | NC(=O)C(=O)c1c2c(n3cccc(OCC(=O)O)c13)C(c1ccccc1)=CCC2 [Compound I-2]
6 | 1.59 µM | 198 to 199 °C | COC(=O)COc1cccn2c3c(c(C(=O)C(N)=O)c12)CCCC3c1ccccc1 (stereo not drawn) [Compound I-3]
7 | 0.054 µM | – | NC(=O)C(=O)c1c2c(n3cccc(OCC(=O)O)c13)C(c1ccccc1)CCC2 (stereo not drawn) [Compound I-4]
8 | 0.262 µM | – | NC(=O)C(=O)c1c2c(n3cccc(OCC(=O)O)c13)C(c1ccccc1)N(C(=O)C(F)(F)F)CC2 (stereo not drawn) [Compound I-8]
9 | 4.57 µM | – | CC(=O)N1CCc2c(C(=O)C(N)=O)c3c(OCC(=O)O)cccn3c2C1c1ccccc1 (stereo not drawn) [Compound I-6]
